{"source": "paper PMC10007777", "about": "“Glycyrrhizic acid inhibits myeloid differentiation of hematopoietic stem cells by binding S100 calcium binding protein A8 to improve cognition in aged mice” (Immunity & Ageing : I & A, 2023)", "target": "T1, S100A8 protein (S100 calcium binding protein A8; MRP-8) (Mus musculus, UniProt P27005)", "T1 construct": "amine-coupled to CM5 (COOH) chip", "T1 sequence (P27005 2-89)": "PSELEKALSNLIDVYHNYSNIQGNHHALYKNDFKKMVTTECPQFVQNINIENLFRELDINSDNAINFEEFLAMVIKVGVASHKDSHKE", "experiment": "SPR (BIAcore […]), S100A8 immobilized", "conditions": "20 mM Tris-HCl, 150 mM NaCl, 1 mM TCEP, pH 7.2, 25 C; GA 0-500 uM", "data": [{"smiles": "CC1(C)[C@@H](O[C@H]2O[C@H](C(=O)O)[C@@H](O)[C@H](O)[C@H]2O[C@@H]2O[C@H](C(=O)O)[C@@H](O)[C@H](O)[C@H]2O)CC[C@]2(C)[C@H]3C(=O)C=C4[C@@H]5C[C@@](C)(C(=O)O)CC[C@]5(C)CC[C@@]4(C)[C@]3(C)CC[C@@H]12", "note": "[GA, Glycyrrhizic acid]", "values": [{"measurement": "binding (SPR)", "result": "The experimental results show binding between GA and S100A8 protein (Fig. 5E)."}]}]}
